Data on eight compounds can be found in US20210023034A1, “PHENYLALANINE DERIVATIVES FOR USE IN THE TREATMENT OF CANCERS” (UNIVERSITE PARIS EST CRETEIL VAL DE MARNE, priority 2018, published 2021).

Data set [1] concerns the target T1, Recombinant human IL4I1 (Homo sapiens, UniProt Q96RQ9).
T1 construct: purchased R&D Systems, Inc
T1 sequence (Q96RQ9 22-567): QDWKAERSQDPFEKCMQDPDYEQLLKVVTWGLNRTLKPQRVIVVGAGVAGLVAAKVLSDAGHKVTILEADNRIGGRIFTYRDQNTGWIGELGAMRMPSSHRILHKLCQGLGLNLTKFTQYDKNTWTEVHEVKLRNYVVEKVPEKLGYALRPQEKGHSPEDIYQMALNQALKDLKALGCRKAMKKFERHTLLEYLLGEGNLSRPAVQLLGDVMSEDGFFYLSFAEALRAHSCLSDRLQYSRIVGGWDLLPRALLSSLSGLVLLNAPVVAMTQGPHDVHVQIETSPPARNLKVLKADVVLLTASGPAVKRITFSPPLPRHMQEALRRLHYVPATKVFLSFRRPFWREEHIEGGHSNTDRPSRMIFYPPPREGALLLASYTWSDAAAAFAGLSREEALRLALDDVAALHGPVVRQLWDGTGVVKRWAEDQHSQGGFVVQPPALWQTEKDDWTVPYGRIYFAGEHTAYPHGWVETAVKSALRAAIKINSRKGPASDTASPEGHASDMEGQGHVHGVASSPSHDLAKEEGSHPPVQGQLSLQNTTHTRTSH
Kind of data set: Evaluation of Ki, fluorometric IL4I1 assay. In kind it is biochemical. The conditions noted are these: for Ki: average of three experiments; for IL4I1 Inhibitor: recombinant human IL4I1, 30 min pre-incubation. Here is the method:
Evaluation of Ki. Recombinant human IL4I1 (from R&D Systems, Inc) was diluted in PBS at 100 µg/mL and pre-incubated for 30 min with decreasing amounts of each inhibitor dissolved in DMSO (50, 25, and 2.5 μM) or DMSO as a control. The activity was tested in the presence of various amounts of substrate ([…] phenylalanine) using the fluorometric IL4I1 assay described by Carbonnelle-Puscian et al. (Leukemia, 2009, volume 23, pages 952-960 (2009). Ki were calculated using Graph Pad Prism.
Recombinant human IL4I1 was diluted in PBS at 100 µg/mL and pre-incubated for 30 min with decreasing amounts of each inhibitor dissolved in DMSO (50, 25, or 2.5 μM) or DMSO alone, as a control, and IL4I1 measured. […] Compound 13 inhibits IL4l1 activity with an almost 10-fold higher Ki.

Data set [2] concerns Jurkat cells. Kind of data set: Jurkat cell counts (Trypan blue). The conditions noted are these: for Jurkat cell proliferation measured by cell counting: Trypan blue counts at days 1, 2, 3 and 6. The class given is cell-based. Here is the method: (§1) Cell counts. Jurkat cells were seeded at 0.1×10^6/mL in a 24-well plate and an aliquot mixed with Trypan blue and counted at days 1, 2, 3, and 6 using disposable Fast-read 10 chambers. Evaluation of metabolic proliferation. Jurkat cells were seeded at 0.1×10^6/mL in a 96-well plate and incubated at 37° C. in 5% CO2 for various times. At each time point, cells were centrifuged, the medium removed, and CellTiter 96® Non-Radioactive Cell Proliferation Assay reagent (Promega) added and the cells incubated an additional 4 h before measuring the optical density at 570 nm in a plate reader (BMG Labtech Fluostar Optima).
(§2) (A) Jurkat cells were seeded at 0.1×10^6/mL in a 24-well plate and an aliquot mixed with Trypan blue and counted at days 1, 2, 3, and 6. Data are the average±SD of three independent experiments. (B) Jurkat cells were seeded at 0.1×10^6/mL in a 96-well plate and incubated at 37° C. in 5% CO2 for the times indicated in FIG. 2. At each time point, cells were centrifuged, the medium removed, and the CellTiter 96® Non-Radioactive Cell Proliferation Assay (Promega) performed. Data are reported as the percentage of proliferation relative to that of the control samples (treated with DMSO) and are the average±SD of three independent experiments. *** p<0,001, **** p<0,0001 Two-way ANOVA test.

The test system of data set [3] is Jurkat cells. Kind of data set: Metabolic proliferation (CellTiter 96 Non-Radioactive Cell Proliferation Assay). The class given is cell-based. The conditions noted are these: CellTiter 96, relative to DMSO control. As to the method:
as §1, §2

Data set [4] relates to Jurkat cells. Kind of data set: Evaluation of apoptosis, activated caspase-3 staining, Jurkat cells. The class given is cell-based. The conditions noted are these: 100 μM, 24 h. As to the method:
(§3) Evaluation of Apoptosis. Cells were seeded at 0.5×10^6/mL in 24-well plates, with or without the compounds at 100 μM or 10 μM etoposide (VP16) as a positive control, and incubated at 37° C. for 24 h. Cells were then fixed and permeabilized using cytox/cytoperm solution (BD Bioscience) followed by the addition of anti-activated caspase 3-AlexaFluor 647 (Rabbit anti-active Caspase 3 clone C92-605, BD Pharmingen). Caspase-3 positive cells were evaluated using a Cyan ADP LX7 (Beckman Coulter) and analyzed using Flowjo.
(§4) (A) Activated caspase-3 staining of Jurkat cells and (B) PBMC. Cells at 0.5×10^6/mL were seeded in 24-well plates with or without the compounds at 100 μM or 10 μM etoposide (VP16), as a positive control, and incubated at 37° C. for 24 h. Twenty-four hours after treatment, apoptotic Caspase-3 positive cells were evaluated by FACS. Data are expressed as the percentage of Caspase-3 positive cells±SD from three independent experiments.

The test system of data set [5] is PBMC. Kind of data set: Evaluation of apoptosis, activated caspase-3 staining, PBMC. As to conditions: 100 μM, 24 h. The class given is cell-based, human. Here is the method: as §3, §4
Data set [6] deals with PBMCs. Kind of data set: Cell proliferation of CPD eFluor670-labeled, anti-CD3 stimulated PBMCs (FACS). The class given is cell-based, human. The conditions noted are these: for division index / proliferation index: PBMCs, relative to cells treated with DMSO; for proliferation of PBMCs: anti-CD3 stimulated, days 3 and 6, relative to DMSO. As to the method:
(§5) Evaluation of cell proliferation. Jurkat cells and PBMCs were labeled with 2 μM Cell Proliferation Dye (CPD) eFluor670 for 10 min at 37° C. DMSO or the compounds were added to labeled PBMCs or Jurkat cells before putting them in culture at 0.2×10^6/well. Jurkat cells were cultured under standard conditions, whereas PBMCs were cultured in 96 U-shaped wells pre-coated with a 0.5 μg/mL solution of anti-CD3 (clone OKT3) functional quality antibody (eBioscience). Cells were collected at day 0, 3, and 6 for fluorescence analysis using a Cyan ADP LX7 (Beckman Coulter). Data were analyzed using Flowjo.
Cell proliferation dye fluor670-labeled PBMCs were stimulated to proliferate in 96-well anti-CD3 coated plates and analyzed at days 3 and 6 by FACS gating on the lymphocytes population. (A) A typical FACS analysis at day 3 is shown. (B) The division (left panel) and proliferation indices (right panel) were calculated using FlowJo. Data are representative of three independent experiments.

In data set [7] the test system is Jurkat cells. Kind of data set: Cell proliferation of CPD eFluor670-labeled Jurkat cells (FACS). The class given is cell-based. The conditions noted are these: data not shown. As to the method: as §5
The mark [8] stands for this setting: compounds disclosed in WO2010/06685.

Molecules are shown by their SMILES.

Usually Ki stands for the dissociation constant of the complex between target and ligand, obtained from inhibition or displacement. For `NC(Cc1ccccn1)C(=O)O` (stereo not shown) [2′-aza-phenylalanine, reference compound], the Ki in data set [1] (setting [8]) turned out to be 2800 µM.
`CCCNC(Cc1ccccc1)C(=O)OCC` (stereo not shown) [Cp 2]: in data set [1], the Ki amounted to 21.3 µM and the “IL4I1 Inhibitor” value is on record as “Yes”. The “Jurkat cell proliferation measured by cell counting” value in data set [2] is “do not affect cell proliferation”. Besides, the “Jurkat cell proliferation measured by metabolic labeling” value in data set [3] was “do not affect cell proliferation”. Also, the “apoptosis of Jurkat cells (Caspase-3 positive cells)” value (“apoptosis of Jurkat cells” for short) in data set [4] is recorded as “do not induce significant apoptosis”. For the same compound, the “apoptosis of PBMCs (Caspase-3 positive cells)” value (“apoptosis of PBMCs” below) in data set [5] is reported as “do not induce significant apoptosis”. For the same compound, in data set [6], the division index entry is “do not vary markedly”, the proliferation index result is “do not vary markedly” and the “proliferation of PBMCs” value is “not substantially modified”. In addition, in data set [7], the “proliferation of Jurkat cells” value was “not substantially modified”.
`CCOC(=O)C(Cc1c(Cl)cccc1Cl)N1CCCCC1` (stereo not shown) [Cp 7]: in data set [1], the Ki came out at 9.8 µM and the “IL4I1 Inhibitor” value was “Yes”. Moreover, in data set [2], the “Jurkat cell proliferation measured by cell counting” value is “strongly inhibits proliferation”. In addition, the “Jurkat cell proliferation measured by metabolic labeling” value in data set [3] is listed as “strongly inhibits proliferation”. In addition, the “apoptosis of Jurkat cells” value in data set [4] was “induced”. In addition, the “apoptosis of PBMCs” value in data set [5] is given as “induced”.
On to `CCOC(=O)C(Cc1ccccc1)N(CC)CC` (stereo not shown) [Cp 13], for which, in data set [1] (Ki compared with the other tested compounds), the “fold higher Ki” value is given as around 10 fold. In data set [1], the Ki is 102 µM and the “IL4I1 Inhibitor” value is “Yes”. The “Jurkat cell proliferation measured by cell counting” value in data set [2] was “do not affect cell proliferation”. Moreover, in data set [3], the “Jurkat cell proliferation measured by metabolic labeling” value is on record as “do not affect cell proliferation”. In addition, the “apoptosis of Jurkat cells” value in data set [4] is “do not induce significant apoptosis”. Further, in data set [5], the “apoptosis of PBMCs” value is recorded as “do not induce significant apoptosis”. Also, in data set [6], the division index result is reported as “do not vary markedly”, the proliferation index result is “do not vary markedly” and the “proliferation of PBMCs” value is recorded as “not substantially modified”. In addition, the “proliferation of Jurkat cells” value in data set [7] is “not substantially modified”.
With `CCOC(=O)C(Cc1ccccc1)Nc1ccccc1` (stereo not shown) [Cp 15], in data set [1], the Ki was 26.9 µM and the “IL4I1 Inhibitor” value was “Yes”. Moreover, the “Jurkat cell proliferation measured by cell counting” value in data set [2] was “no cells remained after six days of culture”. Besides, the “toxicity to Jurkat cells” value in data set [2] (six days of culture) is given as “toxic”.
Take `CCOC(=O)C(Cc1ccccc1)Nc1ccccc1C(O)C(=O)OCC` (stereo not shown) [Cp 16]: in data set [1], the Ki was found to be 25 µM and the “IL4I1 Inhibitor” value was “Yes”. In addition, the “apoptosis of Jurkat cells” value in data set [4] is on record as “does not induce apoptosis”.
Take `CCOC(=O)[C@@H](N)Cc1ccccc1` [L-phenylalanine ethyl ester, reference compound]: the inhibition constant Ki in data set [1] (setting [8]) came out at 3100 µM.
On the same count and under the same terms, under `CC(=O)N[C@@H](Cc1ccccc1)C(=O)O` [N-acetyl-phenylalanine, reference compound] stands 2100 µM.
